Measured values as given in patent US20090269770A1, “METHODS FOR EVALUATION PROGNOSIS AND FOLLOW-UP OF DRUG TREATMENT OF PSYCHIATRIC DISEASES OR DISORDERS” (priority 2008, published 2009).

Legend:
[1] = system: PMC from schizophrenic patients; assay: Real-time RT-PCR of IL8Rα, CCR1, CCR7, RGS7 mRNAs in PMC (6 patients); format: in vivo, human
Protocol: FIGS. 1A-1D show real-time RT-PCR analysis of CCR1 (1A), CCR7 (1B), IL8Ra (1C) and RGS7 (1D) mRNAs in PMCs from schizophrenic patients treated with an antipsychotic drug combined with the antidepressant agent fluvoxamine. Fluvoxamine (100 mg/day) was added in an open study format to the constant antipsychotic treatment of 6 patients suffering from chronic schizophrenia with persistent negative symptoms. Total RNA, isolated from PMCs of these patients at baseline (day 0, BL) as well as following 3 and 6 weeks (3W and 6W, respectively) of the combined treatment, was reverse transcribed. cDNA was amplified in real-time PCR using suitable primers for CCR1, CCR7, IL8Ra and RGS7, as described in the Experimental section hereinafter. The relative expression level of a given mRNA was assessed by normalizing to the reference gene peptidylprolyl isomerase B (cyclophilin B, PPIB). For each patient, the expression level of each one of the genes at baseline was arbitrarily set as 1, and the gene expression levels at 3 and 6 weeks were calculated relative to baseline. Lines connecting points indicate samples of the same patient. Horizontal lines indicate group means. Student's t-test *p<0.05; **p<0.01 for 3 or 6 weeks of fluvoxamine add-on compared with baseline.
(§1) Two μg of total RNA were denatured and reverse transcribed using random hexanucleotides (0.5 μg/μl) as previously described (Chertkow et al., 2006). Real-time quantitative assessment was performed using LightCycler with FastStart DNA Master SYBR Green I ready-to use PCR mix kits according to the manufacture's protocol (Roche Diagnostics, Mannheim, Germany). Forty ng cDNA was amplified per sample. Each experimental set included one reaction with water as template to control for cross contamination. Amplified products were visualized on 1.5% agarose gel. The sequences of the primers, the experimental conditions and the melting temperature of the products are described in Table 2 hereinafter. The results were analyzed in real-time on the provided program of the LightCycler and normalized against a reference gene in order to correct sample-to-sample variation. […] Expression stability of these genes was determined in our samples with ‘Normfinder’ Excel applet (Andersen et al., 2004); PPIB was chosen as the reference gene for normalization. […]
The biochemical data were analyzed by one way analysis of variance (ANOVA) followed by Dunnett's test. […] Clinical response was assessed with repeated measure ANOVA.
In this study, the significant gene expression changes in the PMC of schizophrenic patients, observed in the customized array and shown in Example 1, were verified by real-time RT-PCR. […] The expression level of each candidate was assessed in all samples.

[2] = system: PMC from schizophrenic patients; assay: Real-time RT-PCR of GABAAβ2 and PKCβ2 mRNAs in PMC (8 patients); format: in vivo, human
Protocol: FIGS. 2A-2B show real-time RT-PCR analysis of GABAAβ2 (2A) and PKCβ2 (2B) mRNAs in PMCs from schizophrenic patients treated with an antipsychotic drug combined with the antidepressant agent fluvoxamine. Fluvoxamine (100 mg/day) was added in an open study format to the constant antipsychotic treatment of 8 patients suffering from chronic schizophrenia with persistent negative symptoms. Total RNA, isolated from PMCs of these patients at baseline (day 0, BL) as well as following 1, 3 and 6 weeks (1W, 3W and 6W, respectively) of the combined treatment, was reverse transcribed. cDNA was amplified in real-time PCR using suitable primers for GABAAβ2 and PKCβ2, as described in the Experimental section. The relative expression level of a given mRNA was assessed by normalizing to the reference gene PPIB. For each patient, the expression level of each one of the genes at baseline was arbitrarily set as 1, and the gene expression levels at 3 and 6 weeks were calculated relative to baseline. Lines connecting points indicate samples of the same patient. Dash line indicates average of the samples of different objects. Student's t-test *p<0.05; **p<0.01 for 1, 3 or 6 weeks of fluvoxamine add-on compared with baseline.
as §1, with “Amplified products were visualized on 1.5% agarose gel. The sequences of the primers, the experimental conditions and the melting temperature of the products are described in Table 2 hereinafter.” left out

[3] = after 3-6 weeks of the combined treatment

## COCCCC/C(=N\OCCN)c1ccc(C(F)(F)F)cc1 [fluvoxamine]
[1]; 3 and 6 weeks, among the patients
  CCR7 mRNA expression: did not show a consistent trend
[1]; after 3 and 6 weeks of add-on treatment vs initial level, normalized to PPIB
  IL8Rα mRNA expression: reduced significantly
[1]; after 6 weeks
  RGS7 mRNA expression: significantly reduced
[1]; at both time points (3 and 6 weeks), in 5 out of 6 patients
  CCR1 mRNA expression: reduced
[2]; [3]
  average GABAAβ2 expression increase compared with day 0: 40-50%
  average PKCβ2 expression decrease compared with day 0: ≥ 90%
[2]; after one week of the combined treatment
  average PKCβ2 expression decrease compared with day 0: about 30%
